Data published in PubChem BioAssay (NCI).
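The compound was tested at five concentrations on cells cultured in 96-well plates, with a 48-hour exposure period. The concentration for 50% growth inhibition is given as GI50. The concentration for full growth arrest is given as TGI.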

What was measured:
Assay in all cases: NCI tumour cell line growth inhibition, 48 h
SK-MEL-2 melanoma = system: SK-MEL-2 melanoma
A549 NSCLC = system: A549 NSCLC
EKVX NSCLC = system: EKVX NSCLC
UACC-257 melanoma = system: UACC-257 melanoma
A498 renal = system: A498 renal
OVCAR-5 ovarian = system: OVCAR-5 ovarian
SF-539 CNS = system: SF-539 CNS
HOP-62 NSCLC = system: HOP-62 NSCLC
IGROV1 ovarian = system: IGROV1 ovarian
SK-OV-3 ovarian = system: SK-OV-3 ovarian
TK-10 renal = system: TK-10 renal
HOP-18 NSCLC = system: HOP-18 NSCLC
SN12C renal = system: SN12C renal
DLD-1 colon = system: DLD-1 colon
SW-620 colon = system: SW-620 colon
NCI-H23 lung = system: NCI-H23 lung
OVCAR-3 ovarian = system: OVCAR-3 ovarian
OVCAR-8 ovarian = system: OVCAR-8 ovarian
SF-268 CNS = system: SF-268 CNS
M19-MEL melanoma = system: M19-MEL melanoma
U251 CNS = system: U251 CNS
HCT-15 colon = system: HCT-15 colon
M14 melanoma = system: M14 melanoma
KM12 colon = system: KM12 colon
SNB-19 CNS = system: SNB-19 CNS
K-562 leukemia = system: K-562 leukemia
HL-60(TB) leukemia = system: HL-60(TB) leukemia
SK-MEL-5 melanoma = system: SK-MEL-5 melanoma
CCRF-CEM leukemia = system: CCRF-CEM leukemia
ACHN renal = system: ACHN renal
XF 498 CNS = system: XF 498 CNS
KM20L2 colon = system: KM20L2 colon
786-0 renal = system: 786-0 renal
SNB-75 CNS = system: SNB-75 CNS
CAKI-1 renal = system: CAKI-1 renal
SR leukemia = system: SR leukemia
NCI-H460 lung = system: NCI-H460 lung
LXFL 529 NSCLC = system: LXFL 529 NSCLC
HT29 colon = system: HT29 colon
MALME-3M melanoma = system: MALME-3M melanoma
HCC-2998 colon = system: HCC-2998 colon
RPMI-8226 leukemia = system: RPMI-8226 leukemia
HOP-92 NSCLC = system: HOP-92 NSCLC
SF-295 CNS = system: SF-295 CNS
UACC-62 melanoma = system: UACC-62 melanoma
UO-31 renal = system: UO-31 renal
SNB-78 CNS = system: SNB-78 CNS
DMS 114 small cell lung = system: DMS 114 small cell lung
LOX IMVI melanoma = system: LOX IMVI melanoma
DMS 273 small cell lung = system: DMS 273 small cell lung
SK-MEL-28 melanoma = system: SK-MEL-28 melanoma
MOLT-4 leukemia = system: MOLT-4 leukemia
NCI-H226 lung = system: NCI-H226 lung
OVCAR-4 ovarian = system: OVCAR-4 ovarian
HCT-116 colon = system: HCT-116 colon
COLO 205 colon = system: COLO 205 colon
NCI-H522 lung = system: NCI-H522 lung
RXF 393 renal = system: RXF 393 renal

With `COc1cccc(/C=N/[N-]C(=O)c2ccncc2)c1[O-].[Ni+2].[OH3+]` the GI50 (SK-MEL-2 melanoma) was over 100 µM, the TGI (SK-MEL-2 melanoma) was over 100 µM and the GI50 (A549 NSCLC) was over 100 µM. The TGI (A549 NSCLC) was over 100 µM, the GI50 (EKVX NSCLC) was over 100 µM and the TGI (EKVX NSCLC) was over 100 µM. It also gave a GI50 (UACC-257 melanoma) of over 100 µM, a TGI (UACC-257 melanoma) of over 100 µM and a GI50 (A498 renal) of over 100 µM. For the same molecule, the TGI (A498 renal) was over 100 µM, the GI50 (OVCAR-5 ovarian) was over 100 µM and the TGI (OVCAR-5 ovarian) was over 100 µM. The GI50 (SF-539 CNS) was over 100 µM, the TGI (SF-539 CNS) was over 100 µM and the GI50 (HOP-62 NSCLC) was over 100 µM. For the same molecule, the TGI (HOP-62 NSCLC) was over 100 µM, the GI50 (IGROV1 ovarian) was over 100 µM and the TGI (IGROV1 ovarian) was over 100 µM. For the same molecule, the GI50 (SK-OV-3 ovarian) was over 100 µM, the TGI (SK-OV-3 ovarian) was over 100 µM and the GI50 (TK-10 renal) was over 100 µM. It also gave a TGI (TK-10 renal) of over 100 µM, a GI50 (HOP-18 NSCLC) of over 100 µM and a TGI (HOP-18 NSCLC) of over 100 µM. It also gave a GI50 (SN12C renal) of over 100 µM, a TGI (SN12C renal) of over 100 µM and a GI50 (DLD-1 colon) of over 100 µM. The TGI (DLD-1 colon) was over 100 µM, the GI50 (SW-620 colon) was over 100 µM and the TGI (SW-620 colon) was over 100 µM. The GI50 (NCI-H23 lung) was over 100 µM, the TGI (NCI-H23 lung) was over 100 µM and the GI50 (OVCAR-3 ovarian) was over 100 µM. It also gave a TGI (OVCAR-3 ovarian) of over 100 µM, a GI50 (OVCAR-8 ovarian) of over 100 µM and a TGI (OVCAR-8 ovarian) of over 100 µM. It also gave a GI50 (SF-268 CNS) of over 100 µM, a TGI (SF-268 CNS) of over 100 µM and a GI50 (M19-MEL melanoma) of over 100 µM. It also gave a TGI (M19-MEL melanoma) of over 100 µM, a GI50 (U251 CNS) of over 100 µM and a TGI (U251 CNS) of over 100 µM. For the same molecule, the GI50 (HCT-15 colon) was over 100 µM, the TGI (HCT-15 colon) was over 100 µM and the GI50 (M14 melanoma) was over 100 µM. For the same molecule, the TGI (M14 melanoma) was over 100 µM, the GI50 (KM12 colon) was over 100 µM and the TGI (KM12 colon) was over 100 µM. The GI50 (SNB-19 CNS) was over 100 µM, the TGI (SNB-19 CNS) was over 100 µM and the GI50 (K-562 leukemia) was over 100 µM. The TGI (K-562 leukemia) was over 100 µM, the GI50 (HL-60(TB) leukemia) was over 100 µM and the TGI (HL-60(TB) leukemia) was over 100 µM. It also gave a GI50 (SK-MEL-5 melanoma) of over 100 µM, a TGI (SK-MEL-5 melanoma) of over 100 µM and a GI50 (CCRF-CEM leukemia) of over 100 µM. For the same molecule, the TGI (CCRF-CEM leukemia) was over 100 µM, the GI50 (ACHN renal) was over 100 µM and the TGI (ACHN renal) was over 100 µM. It also gave a GI50 (XF 498 CNS) of over 100 µM, a TGI (XF 498 CNS) of over 100 µM and a GI50 (KM20L2 colon) of over 100 µM. The TGI (KM20L2 colon) was over 100 µM, the GI50 (786-0 renal) was over 100 µM and the TGI (786-0 renal) was over 100 µM. It also gave a GI50 (SNB-75 CNS) of over 100 µM, a TGI (SNB-75 CNS) of over 100 µM and a GI50 (CAKI-1 renal) of over 100 µM. The TGI (CAKI-1 renal) was over 100 µM, the GI50 (SR leukemia) was over 100 µM and the TGI (SR leukemia) was over 100 µM. For the same molecule, the GI50 (NCI-H460 lung) was over 100 µM, the TGI (NCI-H460 lung) was over 100 µM and the GI50 (LXFL 529 NSCLC) was over 100 µM. It also gave a TGI (LXFL 529 NSCLC) of over 100 µM, a GI50 (HT29 colon) of over 100 µM and a TGI (HT29 colon) of over 100 µM. For the same molecule, the GI50 (MALME-3M melanoma) was over 100 µM, the TGI (MALME-3M melanoma) was over 100 µM and the GI50 (HCC-2998 colon) was over 100 µM. For the same molecule, the TGI (HCC-2998 colon) was over 100 µM, the GI50 (RPMI-8226 leukemia) was over 100 µM and the TGI (RPMI-8226 leukemia) was over 100 µM. The GI50 (HOP-92 NSCLC) was over 100 µM, the TGI (HOP-92 NSCLC) was over 100 µM and the GI50 (SF-295 CNS) was over 100 µM. It also gave a TGI (SF-295 CNS) of over 100 µM, a GI50 (UACC-62 melanoma) of over 100 µM and a TGI (UACC-62 melanoma) of over 100 µM. It also gave a GI50 (UO-31 renal) of over 100 µM, a TGI (UO-31 renal) of over 100 µM and a GI50 (SNB-78 CNS) of over 100 µM. It also gave a TGI (SNB-78 CNS) of over 100 µM, a GI50 (DMS 114 small cell lung) of over 100 µM and a TGI (DMS 114 small cell lung) of over 100 µM. It also gave a GI50 (LOX IMVI melanoma) of over 100 µM, a TGI (LOX IMVI melanoma) of over 100 µM and a GI50 (DMS 273 small cell lung) of over 100 µM. For the same molecule, the TGI (DMS 273 small cell lung) was over 100 µM, the GI50 (SK-MEL-28 melanoma) was over 100 µM and the TGI (SK-MEL-28 melanoma) was over 100 µM. The GI50 (MOLT-4 leukemia) was over 100 µM, the TGI (MOLT-4 leukemia) was over 100 µM and the GI50 (NCI-H226 lung) was over 100 µM. It also gave a TGI (NCI-H226 lung) of over 100 µM, a GI50 (OVCAR-4 ovarian) of over 100 µM and a TGI (OVCAR-4 ovarian) of over 100 µM. It also gave a GI50 (HCT-116 colon) of over 100 µM, a TGI (HCT-116 colon) of over 100 µM and a GI50 (COLO 205 colon) of over 100 µM. It also gave a TGI (COLO 205 colon) of over 100 µM.

With `COc1ccc(CC#C/C=C/C(=O)NCC(C)C)cc1` the TGI (SK-MEL-2 melanoma) was over 100 µM, the TGI (A549 NSCLC) was over 100 µM and the TGI (EKVX NSCLC) was over 100 µM. For the same molecule, the TGI (NCI-H522 lung) was over 100 µM, the TGI (UACC-257 melanoma) was over 100 µM and the TGI (OVCAR-5 ovarian) was over 100 µM. The TGI (SF-539 CNS) was over 100 µM, the TGI (IGROV1 ovarian) was over 100 µM and the TGI (SK-OV-3 ovarian) was over 100 µM. It also gave a TGI (TK-10 renal) of over 100 µM, a TGI (HOP-18 NSCLC) of over 100 µM and a TGI (SN12C renal) of over 100 µM. It also gave a TGI (DLD-1 colon) of over 100 µM, a TGI (SW-620 colon) of over 100 µM and a TGI (NCI-H23 lung) of over 100 µM. It also gave a TGI (OVCAR-3 ovarian) of over 100 µM, a TGI (OVCAR-8 ovarian) of over 100 µM and a TGI (SF-268 CNS) of over 100 µM. The TGI (M19-MEL melanoma) was over 100 µM, the TGI (U251 CNS) was over 100 µM and the TGI (HCT-15 colon) was over 100 µM. It also gave a TGI (M14 melanoma) of over 100 µM, a TGI (KM12 colon) of over 100 µM and a TGI (SNB-19 CNS) of over 100 µM. The TGI (K-562 leukemia) was over 100 µM, the TGI (HL-60(TB) leukemia) was over 100 µM and the TGI (SK-MEL-5 melanoma) was over 100 µM. The TGI (RXF 393 renal) was over 100 µM, the TGI (CCRF-CEM leukemia) was over 100 µM and the TGI (ACHN renal) was over 100 µM. For the same molecule, the TGI (XF 498 CNS) was over 100 µM, the TGI (KM20L2 colon) was over 100 µM and the TGI (786-0 renal) was over 100 µM. For the same molecule, the TGI (SNB-75 CNS) was over 100 µM, the TGI (SR leukemia) was over 100 µM and the TGI (NCI-H460 lung) was over 100 µM. For the same molecule, the TGI (LXFL 529 NSCLC) was over 100 µM, the TGI (HT29 colon) was over 100 µM and the TGI (MALME-3M melanoma) was over 100 µM. It also gave a TGI (HCC-2998 colon) of over 100 µM, a TGI (RPMI-8226 leukemia) of over 100 µM and a TGI (HOP-92 NSCLC) of over 100 µM. It also gave a TGI (SF-295 CNS) of over 100 µM, a TGI (UACC-62 melanoma) of over 100 µM and a TGI (UO-31 renal) of over 100 µM. The TGI (SNB-78 CNS) was over 100 µM, the TGI (DMS 114 small cell lung) was over 100 µM and the TGI (LOX IMVI melanoma) was over 100 µM. For the same molecule, the TGI (DMS 273 small cell lung) was over 100 µM, the TGI (SK-MEL-28 melanoma) was over 100 µM and the TGI (MOLT-4 leukemia) was over 100 µM. The TGI (NCI-H226 lung) was over 100 µM, the TGI (OVCAR-4 ovarian) was over 100 µM and the TGI (HCT-116 colon) was over 100 µM. The TGI (COLO 205 colon) was over 100 µM.
